According to publication PMC5095173, “Disulfide-activated protein kinase G Iα regulates cardiac diastolic relaxation and fine-tunes the Frank–Starling response” (Nature Communications, 2016):

Key:
WT PKGIα = assay: Oxidation of recombinant WT PKGIα to disulfide dimer (SDS-PAGE); assay type: biochemical, human; details: 10 mM lipoic acid, 2 h on ice; confirmed by SDS-PAGE
Procedure: A pCDNA3 expression vector encoding human FLAG-tagged PKGIα (ref. [41]) underwent site-directed mutagenesis to generate constructs for untagged WT, C42S, M438G and C42S/M438G PKGIα. Mutations were introduced using the QuikChange II Site-Directed Mutagenesis Kit (Agilent) according to the manufacturer's instructions. Expression and purification of the PKGIα mutants was performed according to a published method[42] as follows: suspension FreeStyle 293-F cells (ThermoFisher Scientific) were transfected with the appropriate PKGIα construct using the stable cationic polymer polyethyleneimine (PEI) as a transfection reagent. After ∼72 h cells were harvested by centrifugation (400g; room temperature; 15 min), re-suspended in ice cold lysis buffer (25 mM sodium phosphate buffer pH 6.8; 10 mM ethylenediaminetetraacetic acid (EDTA); 100 mM NaCl; 10 mM benzamidine hydrochloride; and 10 mM dithiothreitol (DTT)) and frozen in liquid N2. Cells were lysed by three freeze (liquid N2)-thaw (37 °C) cycles and the lysate was clarified by centrifugation at 140,000g and 4 °C for 30 min. […] Protein concentration was determined by Pierce BCA assay (ThermoFisher) and enzyme activity was confirmed using the Omnia kinase assay kit (ThermoFisher).

[1] = 37 °C; value taken for Ca2+ calibration, no reference given; read-out: Kd of Fluo-3; cited from earlier work
Procedure: To measure cytosolic Ca^2+ levels, cells were loaded with the acetoxymethyl (AM) ester form Fluo-3 (Molecular Probes) and excited continuously at 488 nm. Emitted fluorescence was measured with a 515 nm long-pass filter. Raw fluorescent signals were calibrated off-line as per equation (1). […] Background fluorescence was subtracted from all raw signals. Custom-written Excel routines were used to measure Ca^2+ transient amplitude, diastolic Ca^2+ levels, rate of decay of the Ca^2+ transient and SR Ca^2+ content. SR Ca^2+ content was estimated fr ...

another kinase = details: ref www.nature.com/ncomms/2015/150810/ncomms8920; cited from earlier work
Source text: page 15: reasons explained, are complicated to interpret and they are not anticipated to be as effective as many would envisage. […] Now high profile preclinical studies show ...

[2] = system: PKGIα (analogue-sensitive C42S/M438G), cGMP-activated; assay: Chemical genetic phosphoproteomic screen, cGMP-activated PKGIα C42S/M438G versus unactivated control; assay type: biochemical, human PKGIα; substrates in rat heart homogenate; details: cGMP activation; of 29 substrates with significant change
Source text: We employed a chemical genetic method[18] to identify direct substrates of cGMP-activated PKGIα and disulfide bond-activated PKGIα in heart tissue. This method involves mutation of the ATP binding-site of the kinase of interest so that it can accept a ‘bulky' N6-alkylated ATP analogue for example, N6^−phenylethyl ATP. An oxygen atom on the γ phosphate is also replaced with a sulfur atom—giving an N6-alkylated ATPγS analogue—so that the mutant kinase catalyses the transfer of a thiophosphate group (–PO3S^3−) to its substrates instead of a phosphate. The thiophosphate group is nucleophilic, providing a basis for substrates of the analogue-sensitive kinase to be purified by a ‘covalent capture' protocol. LC–MS/MS allows identification of the substrate and localization of the phosphorylation site. Thiophosphorylated proteins can also be detected with a thiophosphate ester-specific antibody. Analogue-sensitive mutants of PKGIα and PKGIα C42S (which cannot form the activating intermolecular disulfide bond) were generated by mutating Met438 in the ATP-binding domain to Gly. This mutation was chosen based on a previous study where an analogue-sensitive mutant of the catalytic subunit of PKA—which shares sequence homology with PKGIα—was engineered. Detailed protocols are given below.
A pCDNA3 expression vector encoding human FLAG-tagged PKGIα (ref. [41]) underwent site-directed mutagenesis to generate constructs for untagged WT, C42S, M438G and C42S/M438G PKGIα. Mutations were introduced using the QuikChange II Site-Directed Mutagenesis Kit (Agilent) according to the manufacturer's instructions. Expression and purification of the PKGIα mutants was performed according to a published method[42] as follows: suspension FreeStyle 293-F cells (ThermoFisher Scientific) were transfected with the appropriate PKGIα construct using the stable cationic polymer polyethyleneimine (PEI) as a transfection reagent. After ∼72 h cells were harvested by centrifugation (400g; room temperature; 15 min), re-suspended in ice cold lysis buffer (25 mM sodium phosphate buffer pH 6.8; 10 mM ethylenediaminetetraacetic acid (EDTA); 100 mM NaCl; 10 mM benzamidine hydrochloride; and 10 mM dithiothreitol (DTT)) and frozen in liquid N2. Cells were lysed by three freeze (liquid N2)-thaw (37 °C) cycles and the lysate was clarified by centrifugation at 140,000g and 4 °C for 30 min. The soluble protein fraction was loaded onto a pre-equilibrated 8-(2-aminoethylamino)adenosine-3′, 5′-cyclic monophosphate column (8-AEA-cAMP agarose; BioLog, Germany) followed by washing with 20 column volumes of lysis buffer. The column was further washed with lysis buffer +3 M NaCl (5 column volumes) and PKGIα was then eluted with lysis buffer +150 mM NaCl and 500 μM cAMP. Removal of cAMP and buffer exchange was achieved by extensive dialysis against 25 mM sodium phosphate buffer pH 6.8, 2 mM EDTA and 100 mM NaCl. For ITC analysis, WT PKGIα was incubated with 10 mM lipoic acid for 2 h on ice to obtain ∼100% disulfide dimer (confirmed by SDS-PAGE). Oxidized WT or C42S PKGIα was further purified by size exclusion chromatography using a HiLoad 16/600 Superdex 200 pg column (GE Healthcare) with 50 mM sodium phosphate buffer pH 7.4 and 100 mM NaCl. Proteins were concentrated using Amicon Ultra centrifugal filter devices (Merck Millipore). DTT was absent in storage buffers so that the activating disulfide bond would not be reduced and so that the PKGIα M438G mutant would be oxidized to disulfide dimer in the presence of air (confirmed by SDS-PAGE). Protein concentration was determined by Pierce BCA assay (ThermoFisher) and enzyme activity was confirmed using the Omnia kinase assay kit (ThermoFisher).
Male Wistar rats (9–10 weeks; body weight 300–330 g) were euthanized by intraperitoneal injection of sodium pentobarbitone (200 mg kg^−1) with heparin (500 USP units). […]

[3] = system: PKGIα Cys42 disulfide bond; details: ref [3], [4]; cited from earlier work

O=C(O)CCCC[C@@H]1CCSS1 (racemic) [lipoic acid]
disulfide dimer formed (WT PKGIα): ~100%

Cc1ccc(N(CC(=O)O)CC(=O)O)c(OCCOc2cc(-c3c4cc(Cl)c(=O)cc-4oc4cc(O)c(Cl)cc34)ccc2N(CC(=O)O)CC(=O)O)c1 [Fluo-3]
Kd [1]: 864 nM

CC(=O)N[C@@H](CS)C(=O)O [NAC, N-acetylcysteine]
effect on oxidation of another kinase (another kinase): promoted the oxidation of that target

Nc1nc2c(ncn2[C@@H]2O[C@@H]3COP(=O)(O)O[C@H]3[C@H]2O)c(=O)[nH]1 [cGMP, cyclic guanosine monophosphate, reference compound]
number of proteins with significantly increased phosphorylation when PKGIα was activated [2]: 28 | effect on formation of the Cys42 intermolecular disulfide bond [3]: inhibits formation of the Cys42 intermolecular disulfide bond
